Data on 44 molecules can be found in patent US20210163471A1, “PROGRANULIN MODULATORS AND METHODS OF USING THE SAME” (ARKUDA THERAPEUTICS, priority 2017, published 2021).

Structures are written as SMILES. pEC50: −log10 of the molar value. Where two headings read alike, the source gives them in different places.

The assay has as its system BV-2 (mouse microglia) cells. Kind of assay: progranulin secretion from BV-2 cells, mouse progranulin ELISA of conditioned media. The assay is classed as cell-based. As to conditions: for pEC50: BV-2 cells, 16 hours incubation, 8-point curves starting at 10 μM. As for the experimental part:
BV-2 cells are split the day before plating into a 96 well plate format at approximately 80%. Cells should be plated the day before and allowed for 1 hour attachment period and for 16 hour incubation. […] Standard ELISA kits to measure PGRN are available from vendors such as Adipogen, R&D, and Biovendor.
Compound potency was determined by measuring progranulin secretion from BV-2 (mouse microglia) cells. BV-2 cells were grown in RPMI with 2 mM L-glutamine supplemented with 10% fetal bovine serum. On the day of the assay, cells were plated in 96-well plates at a density of 30,000 cells/well in RPMI (Roswell Park Memorial Institute media)/L-glutamine supplemented with 2% Fetal clone serum II (plating media) and left to adhere for 1 hour. Following attachment to the plate, media was replaced with treatment (8-point curves in half-log dilutions starting at 10 μM) in plating media and incubated for 16 hours. Secreted progranulin was measured from a 1:10 dilution of the conditioned media using the R&D Systems mouse progranulin ELISA kit (cat #DY2557) and following the manufacturer's instructions.
(In general: In an ELISA, binding on a coated surface is turned into a signal by an enzyme label.)

Where [1] appears, read: Mus musculus, assay run v2 (same protocol, different assay), read-out: PRGN v2 (EC50, progranulin secretion).
The mark [2] stands for this setting: Mus musculus, BV-2, 16 h, assay run v1, read-out: PRGN v1 (EC50, progranulin secretion).
The mark [3] stands for this setting: Mus musculus, BV-2, 16 h, assay run v2 (same protocol, different assay), read-out: PRGN v2 (EC50, progranulin secretion).
Setting [4] is: assay run v1, read-out: PRGN v1 (EC50, progranulin secretion).
The mark [5] stands for this setting: assay run v2 (same protocol, different assay), read-out: PRGN v2 (EC50, progranulin secretion).

For `Cc1nc2ccc([C@@H]3c4ccccc4CCN3C(=O)O[C@@H]3CN4CCC3CC4)cc2o1` [Compound 1139], under setting [1], the pEC50 is under 5.00.
Consider `CS(=O)(=O)N1CC([C@H]2c3ccccc3CCN2C(=O)N[C@@H]2CN3CCC2CC3)C1` [Compound 1123], for which the pEC50 under setting [2] is under 5.00 and the pEC50 under setting [3] was under 5.00.
For `CC1([C@H]2c3ccccc3CCN2C(=O)N[C@@H]2CN3CCC2CC3)COC1` [Compound 1089], the pEC50 under setting [2] was under 5.00.
Same read-out and setting: with `O=C(C[C@@H]1CN2CCC1CC2)N1CCc2ccccc2[C@@H]1c1ccc(Cl)cc1` [Compound 1049] the figure was 6.68.
Consider `O=C(O[C@@H]1CN2CCC1CC2)N1CCc2ccccc2[C@H]1c1ccc(C(F)(F)F)cc1` [Compound 1127], for which the pEC50 under setting [1] is under 5.00.
Turning to `CC1([C@@H]2c3ccccc3CCN2C(=O)N[C@@H]2CN3CCC2CC3)COC1` [Compound 1090], the pEC50 under setting [2] is under 5.00.
Turning to `CC(C)Oc1ccc([C@@H]2c3ccccc3CCN2C(=O)N[C@@H]2CN3CCC2CC3)cc1` [Compound 1088], the pEC50 under setting [2] is under 5.00.
Consider `COc1ccc([C@@H]2c3ccccc3CCN2C(=O)O[C@@H]2CN3CCC2CC3)cc1` [Compound 1025], for which the pEC50 is 5.36 under setting [4] and under 5.00 under setting [5].
With `O=C(N[C@@H]1CN2CCC1CC2)N1CCc2ccccc2[C@H]1c1ccc(F)cc1` [Compound 1071], the pEC50 (Mus musculus, assay run v1, read-out: PRGN v1 (EC50, progranulin secretion)) was 6.39.
For `CS(=O)(=O)N1CC([C@@H]2c3ccccc3CCN2C(=O)N[C@@H]2CN3CCC2CC3)C1` [Compound 1124], the pEC50 under setting [2] was under 5.00 and the pEC50 under setting [3] was under 5.00.
On to `O=C(N[C@@H]1CN2CCC1CC2)N1CCc2ccccc2[C@H]1c1ccc2nccn2c1` [Compound 1080], for which, under setting [2], the pEC50 is under 5.00.
For the molecule `O=C(O[C@@H]1CN2CCC1CC2)N1CCc2ccccc2[C@H]1c1ccc2scnc2c1` [Compound 1035], the pEC50 is under 5.00 under setting [4] and under 5.00 under setting [5].
In the case of `O=C(N[C@@H]1CN2CCC1CC2)N1CCc2ccccc2[C@@H]1c1ccc2cncn2c1` [Compound 1111], the pEC50 is, setting by setting: under setting [2], 5.00; under setting [3], under 5.00.
As to `O=C(N[C@@H]1CN2CCC1CC2)N1CCc2ccccc2[C@H]1c1ccc(N2CCCC2)cc1` [Compound 1104], the pEC50 under setting [2] was 5.29.
Take `O=C(N[C@@H]1CN2CCC1CC2)N1CCc2ccccc2[C@H]1c1cccc(F)c1` [Compound 1110]: the pEC50 under setting [2] is 5.21 and the pEC50 under setting [3] is under 5.00.
In the case of `O=C(O[C@H]1CN2CCC1CC2)N1CCc2ccccc2[C@@H]1c1ccccc1` [Solifenacin, solifenacin, reference compound], under “mouse BV2 cells”, the “secretion of progranulin from mouse BV2 cells” value is on record as “causes the secretion of progranulin from mouse BV2 cells”.
For `O=C(N[C@@H]1CN2CCC1CC2)N1CCc2ccccc2[C@@H]1c1cccnc1` [Compound 1085], the pEC50 under setting [2] is 5.75.
On to `O=C(O[C@@H]1CN2CCC1CC2)N1CCc2ccccc2[C@@H]1c1ccnc(O)c1` [Compound 1002], for which the pEC50 under setting [4] was under 5.00.
Turning to `O=C(N[C@@H]1CN2CCC1CC2)N1CCc2ccccc2[C@H]1c1cccnc1` [Compound 1086], the pEC50 under setting [2] was 5.50.
With `CN(C(=O)N1CCc2ccccc2[C@@H]1c1ccc(F)cc1)[C@@H]1CN2CCC1CC2` [Compound 1130], the pEC50 under setting [3] is 5.99.
`O=C(N[C@@H]1CN2CCC1CC2)N1CCc2ccccc2[C@@H]1c1ccn2cncc2c1` [Compound 1097]: under setting [2], the pEC50 is under 5.00.
As for `O=C(N[C@@H]1CN2CCC1CC2)N1CCc2ccccc2[C@@H]1c1cnc2nccn2c1` [Compound 1117], the pEC50 under setting [2] is under 5.00 and the pEC50 under setting [3] is under 5.00.
For `O=C(N[C@@H]1CN2CCC1CC2)N1CCc2ccccc2[C@@H]1c1ccccc1` [Compound 1047], under setting [2], the pEC50 was 6.15.
`O=C(O[C@@H]1CN2CCC1CC2)N1CCc2ccccc2[C@H]1COc1ccc(F)cc1` [Compound 1135]: the negative logarithm of the EC50 (pEC50) under setting [5] is under 5.00.
As to `O=C(O[C@@H]1CN2CCC1CC2)N1CCc2ccccc2[C@@H]1c1cccc(F)c1F` [Compound 1015], the pEC50 is, setting by setting: under setting [4], 6.48; under setting [5], 5.95.
Consider `O=C(N[C@@H]1CN2CCC1CC2)N1CCc2ccccc2[C@@H]1c1ccc(Cl)cc1` [Compound 1081], for which, under setting [2], the negative logarithm of the EC50 (pEC50) is 6.60.
On the same count and under the same terms, with `O=C(N[C@@H]1CN2CCC1CC2)N1CCc2ccccc2[C@@H]1c1ccc(O)cc1` [Compound 1093] the figure was under 5.50.
For `O=C(N[C@@H]1CN2CCC1CC2)N1CCc2ccccc2[C@@H]1c1ccc2cccn2c1` [Compound 1107], the pEC50 reads like this: under setting [5], 5.43; under setting [2], 5.27.
Turning to `O=C(N[C@@H]1CN2CCC1CC2)N1CCc2ccccc2[C@H]1c1ccc(F)c(F)c1` [Compound 1076], the pEC50 under setting [2] was under 5.00.
On to `O=C(O[C@@H]1CN2CCC1CC2)N1CCc2ccccc2[C@@H]1c1cccc(F)c1` [Compound 1020], for which the pEC50 by setting is: under setting [4], 5.86; under setting [5], 5.45.
Regarding `COc1ccc([C@H]2c3ccccc3CCN2C(=O)N[C@@H]2CN3CCC2CC3)cc1` [Compound 1073], the pEC50 under setting [2] is 5.30.
Consider `O=C(O[C@@H]1CN2CCC1CC2)N1Cc2ccccc2[C@H]1c1ccccc1` [Compound 1045], for which the pEC50 under setting [1] was under 5.00.
In the case of `O=C(N[C@@H]1CN2CCC1CC2)N1CCc2ccccc2[C@@H]1c1ccc2cccn2c1` [Compound 1108], the negative-log EC50 (pEC50) was 5.25 under setting [4] and under 5.00 under setting [5].
With `O=C(O[C@@H]1CN2CCC1CC2)N1CCc2ccccc2[C@@H]1COc1ccc(F)cc1` [Compound 1134], the negative-log EC50 (pEC50) under setting [5] is under 5.00.
Take `COc1ccc([C@H]2c3ccccc3CCN2C(=O)O[C@@H]2CN3CCC2CC3)cn1` [Compound 1028]: the pEC50 was under 5.00 under setting [4] and under 5.00 under setting [5].
As to `O=C(C[C@@H]1CN2CCC1CC2)N1CCc2ccccc2[C@@H]1c1cccc(F)c1` [Compound 1062], the pEC50 reads like this: under setting [2], 5.96; under setting [3], under 5.21.
In the case of `O=C(N[C@@H]1CN2CCC1CC2)N1CCc2ccccc2[C@@H]1c1ccc(OCc2ccccc2)cc1` [Compound 1091], the pEC50 under setting [2] was 6.47.
Consider `O=C(C[C@@H]1CN2CCC1CC2)N1CCc2ccccc2[C@H]1c1ccc(OC2CC2)cc1` [Compound 1069], for which the pEC50 under setting [2] was under 5.00 and the pEC50 under setting [3] is under 5.00.
On to `CS(=O)(=O)c1ccc([C@H]2c3ccccc3CCN2C(=O)N[C@@H]2CN3CCC2CC3)cc1` [Compound 1072, (S)-1-(4-(methylsulfonyl)phenyl)-N—((S)-quinuclidin-3-yl)-3,4-dihydroisoquinoline-2(1H)-carboxamide], for which the pEC50 under setting [2] was under 5.36.
Turning to `O=C(O[C@@H]1CN2CCC1CC2)N1CCc2ccccc2[C@H]1c1cc(F)cc(F)c1` [Compound 1041], the pEC50 under setting [5] is under 5.00.
On to `O=C(N[C@@H]1CN2CCC1CC2)N1CCc2ccccc2[C@@H]1c1ccn2ccnc2c1` [Compound 1105], for which the pEC50 is under 5.00 under setting [2] and under 5.00 under setting [3].
With `O=C(N[C@@H]1CN2CCC1CC2)N1CCc2ccccc2[C@H]1c1ccc(Cl)cc1` [Compound 1082], the pEC50 under setting [2] is 5.80.
Consider `Cc1nc2cc([C@@H]3c4ccccc4CCN3C(=O)O[C@@H]3CN4CCC3CC4)ccc2s1` [Compound 1133], for which the pEC50 under setting [1] was 5.03.
On to `CC1(C)[C@@H](NC(=O)N2CCc3ccccc3[C@@H]2c2ccc(Cl)cc2)C2CCN1CC2` [Compound 1050], for which the pEC50 under setting [2] was 6.44.

Usually pEC50 stands for the negative decadic logarithm of the EC50, by convention in mol/L.
